From patent US7838530B2, “Quinazoline derivatives as antiproliferative agents” (AstraZeneca AB, priority 2003, dated 2010)

Columns and labels:
[1] = biological target: T1, EGFR tyrosine kinase enzyme (Homo sapiens, UniProt P00533); assay: Protein tyrosine kinase phosphorylation assay, Test (a); type: biochemical; details: ATP at Km concentration; read-out: IC50 (nM) Test (a) (inhibition of tyrosine kinase protein phosphorylation)
T1 construct: Recombinant intracellular fragments of EGFR, erbB2 and erbB4; made in house; host or cells: baculovirus/Sf21 insect cells
Method: This test measures the ability of a test compound to inhibit the phosphorylation of a tyrosine containing polypeptide substrate by EGFR tyrosine kinase enzyme.
Recombinant intracellular fragments of EGFR, erbB2 and erbB4 (accession numbers X00588, X03363 and L07868 respectively) were cloned and expressed in the baculovirus/Sf21 system. Lysates were prepared from these cells by treatment with ice-cold lysis buffer (20 mM N-2-hydroxyethylpiperizine-N′-2-ethanesulfonic acid (HEPES) pH7.5, 150 mM NaCl, 10% glycerol, 1% Triton X-100, 1.5 mM MgCl2, 1 mM ethylene glycol-bis(β-aminoethyl ether) N′,N′,N′,N′-tetraacetic acid (EGTA), plus protease inhibitors and then cleared by centrifugation.
Constitutive kinase activity of the recombinant protein was determined by its ability to phosphorylate a synthetic peptide (made up of a random co-polymer of Glutamic Acid, Alanine and Tyrosine in the ratio of 6:3:1). Specifically, Maxisorb™ 96-well immunoplates were coated with synthetic peptide (0.2 μg of peptide in a 100 μl phosphate buffered saline (PBS) solution and incubated at 4° C. overnight). Plates were washed in PBS-T (phosphate buffered saline with 0.5% Tween 20) then in 50 mM HEPES pH 7.4 at room temperature to remove any excess unbound synthetic peptide. EGFR, ErbB2 or ErbB4 tyrosine kinase activity was assessed by incubation in peptide coated plates for 20 minutes at 22° C. in 100 mM HEPES pH 7.4, adenosine trisphosphate (ATP) at Km concentration for the respective enzyme, 10 mM MnCl2, 0.1 mM Na3VO4, 0.2 mM DL-dithiothreitol (DTT), 0.1% Triton X-100 with test compound in DMSO (final concentration of 2.5%). Reactions were terminated by the removal of the liquid components of the assay followed by washing of the plates with PBS-T.
The immobilised phospho-peptide product of the reaction was detected by immunological methods. Firstly, plates were incubated for 90 minutes at room temperature with anti-phosphotyrosine primary antibodies that were raised in the mouse (4G10 from Upstate Biotechnology). Following extensive washing, plates were treated with Horseradish Peroxidase ([…]) conjugated sheep anti-mouse secondary antibody (NXA931 from Amersham) for 60 minutes at room temperature. After further washing, HRP activity in each well of the plate was measured colorimetrically using 22′-Azino-di-[3-ethylbenzthiazoline sulfonate (6)] diammonium salt crystals (ABTS™ from Roche) as a substrate.
Quantification of colour development and thus enzyme activity was achieved by the measurement of absorbance at 405 nm on a Molecular Devices ThermoMax microplate reader. Kinase inhibition for a given compound was expressed as an IC50 value. This was determined by calculation of the concentration of compound that was required to give 50% inhibition of phosphorylation in this assay. The range of phosphorylation was calculated from the positive (vehicle plus ATP) and negative (vehicle minus ATP) control values.

KB cells = assay: EGFR driven KB cell proliferation assay, Test (b); type: cell-based; details: Homo sapiens, 96 h, EGF 1 ng/ml, incubation for 4 days, MTT
Method: This assay measures the ability of a test compound to inhibit the proliferation of KB cells (human naso-pharangeal carcinoma obtained from the American Type Culture Collection (ATCC).
KB cells (human naso-pharangeal carcinoma obtained from the ATCC were cultured in Dulbecco's modified Eagle's medium (DMEM) containing 10% foetal calf serum, 2 mM glutamine and non-essential amino acids at 37° C. in a 7.5% CO2 air incubator. Cells were harvested from the stock flasks using Trypsin/ethylaminediaminetetraacetic acid (EDTA). Cell density was measured using a haemocytometer and viability was calculated using trypan blue solution before being seeded at a density of 1.25×10^3 cells per well of a 96 well plate in DMEM containing 2.5% charcoal stripped serum, 1 mM glutamine and non-essential amino acids at 37° C. in 7.5% CO2 and allowed to settle for 4 hours.
Following adhesion to the plate, the cells are treated with or without EGF (final concentration of 1 ng/ml) and with or without compound at a range of concentrations in dimethylsulfoxide (DMSO) (0.1% final) before incubation for 4 days. Following the incubation period, cell numbers were determined by addition of 50 μl of 3-(4,5-Dimethylthiazol-2-yl)-2,5-diphenyltetrazolium bromide (MTT) (stock 5 mg/ml) for 2 hours. MTT solution was then tipped off, the plate gently tapped dry and the cells dissolved upon the addition of 100 μl of DMSO.
Absorbance of the solubilised cells was read at 540 nm using a Molecular Devices ThermoMax microplate reader. Inhibition of proliferation was expressed as an IC50 value. This was determined by calculation of the concentration of compound that was required to give 50% inhibition of proliferation. The range of proliferation was calculated from the positive (vehicle plus EGF) and negative (vehicle minus EGF) control values.

T1 sequence (P00533 669-1210 limits assumed): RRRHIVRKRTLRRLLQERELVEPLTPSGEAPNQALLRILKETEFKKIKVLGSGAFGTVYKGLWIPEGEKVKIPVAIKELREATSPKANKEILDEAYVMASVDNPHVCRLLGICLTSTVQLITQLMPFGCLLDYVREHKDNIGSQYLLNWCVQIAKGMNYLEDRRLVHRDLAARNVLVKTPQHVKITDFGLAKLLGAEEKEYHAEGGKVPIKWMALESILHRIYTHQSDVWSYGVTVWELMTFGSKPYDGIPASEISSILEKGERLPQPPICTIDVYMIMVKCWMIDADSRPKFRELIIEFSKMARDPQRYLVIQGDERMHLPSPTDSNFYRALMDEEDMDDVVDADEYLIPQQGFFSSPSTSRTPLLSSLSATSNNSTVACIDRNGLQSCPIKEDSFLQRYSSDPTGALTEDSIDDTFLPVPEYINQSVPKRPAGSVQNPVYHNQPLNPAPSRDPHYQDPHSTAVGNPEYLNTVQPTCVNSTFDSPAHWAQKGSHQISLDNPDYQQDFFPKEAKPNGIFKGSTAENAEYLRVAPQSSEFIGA

IC50 [1]	IC50 (KB cells)	SMILES
< 1 nM	17 nM	COc1cc2ncnc(Nc3cccc(Cl)c3F)c2cc1OC1CCN(C(=O)Nc2c(C)noc2C)CC1 [Compound 96, 4-({4-[(3-Chloro-2-fluorophenyl)amino]-7-methoxyquinazolin-6-yl}oxy)-N-(3,5-dimethylisoxazol-4-yl)piperidine-1-carboxamide]
< 1 nM	30 nM	COc1cc2ncnc(Nc3cccc(Cl)c3F)c2cc1O[C@@H]1CCCN(C(=O)Cc2cccs2)C1 [Compound 60, N-(3-chloro-2-fluorophenyl)-7-methoxy-6-{[(3R)-1-(2-thienylacetyl)piperidin-3-yl]oxy}quinazolin-4-amine]
15 nM	47 nM	COc1cc2c(Nc3cccc(Cl)c3F)ncnc2cc1OC1CCN(C(=O)Cc2cc(C)no2)CC1 [Compound 33, N-(3-chloro-2-fluorophenyl)-6-methoxy-7-({1-[(3-methylisoxazol-5-yl)acetyl]piperidin-4-yl}oxy)quinazolin-4-amine]
< 1 nM	17 nM	COc1cc2ncnc(Nc3cccc(Cl)c3F)c2cc1OC1CCN(C(=O)c2ccno2)CC1 [Compound 1, N-(3-chloro-2-fluorophenyl)-6-{[1-(isoxazol-5-ylcarbonyl)piperidin-4-yl]oxy}-7-methoxyquinazolin-4-amine]

SMILES	IC50 [1]	IC50 (KB cells)
COc1cc2ncnc(Nc3cccc(Cl)c3F)c2cc1OC1CCN(C(=O)c2ccccn2)CC1 [Compound 10, N-(3-chloro-2-fluorophenyl)-7-methoxy-6-{[1-(pyridin-2-ylcarbonyl)piperidin-4-yl]oxy}quinazolin-4-amine]	14 nM	16 nM
COc1cc2c(Nc3cccc(Cl)c3F)ncnc2cc1OC1CCN(C(=O)c2cccnc2)CC1 [Compound 34, N-(3-chloro-2-fluorophenyl)-7-{[1-(pyridin-3-ylcarbonyl)piperidin-4-yl]oxy}-6-methoxyquinazolin-4-amine]	43 nM	87 nM
